Residues, ends and D or L forms follow the SMILES beside them. FAM = fluoresceinamine label
Experiments:
fluid percussion injury = conditions: intracerebroventricular administration after fluid percussion injury in rats; cited from earlier work
[1] = test system: penetrating brain injury (PBI); assay type: in vivo, mouse; conditions: for Homing to the injured brain (FAM fluorescence, immunohistochemical staining): i.v. 6 hours after PBI, 30 minutes circulation; for Peptide signal in injured brain 3 hours after injection (retention): mouse, in vivo
Protocol: All animal experiments were conducted under an approved protocol of the Institutional Animal Care and Use Committee of Sanford Burnham Prebys Medical Discovery Institute. Eight to ten week old male BL6 mice were anesthetized with 4% isoflurane (Aerrane; Baxter, UK) in 70% N2O and 30% O2 and positioned in a stereotaxic frame. Using a head restraint, a 5-mm craniotomy was made using a portable drill and a trephine over the right parietotemporal cortex and the bone flap was removed. Penetrating brain injury model was used as described (Kielian et al., J. Immunol. 166:4634-4643 (2001); Kielian, J. Neuroinflammation 1:16 (2004)). Nine needle punctures using a 21 G needle were made 3 mm deep according to a 3×3 grid, spaced 1 mm in width and 1 mm in height. For traumatic brain injury, a Controlled Cortical Impact (CCI) model was used as described (Krajewska et al., PLoS One 6:e24341 (2011)). Mice were subjected to CCI using the benchmark stereotaxic impactor (Impact One™; myNeuroLab.com) with the actuator part mounted directly on the stereotaxic instrument. The impactor (3 mm in diameter) tip accelerated down to the 1.0 mm distance, reaching the preset velocity of 3 m/s, and the applied electromagnetic force remained there for the dwell time of 85 ms, and then retracted automatically. The contact sensor indicated the exact point of contact for reproducible results. In both models, facemask anesthesia (1-2% isoflurane in 70%/30% nitrous oxide/oxygen) was used during the entire procedure and afterwards, the scalp was closed with sutures, anesthesia discontinued, and mice were administered buprenorphine i.p. for pain control. For the first 2 hours after injury, mice were closely monitored in their cages.
CLARITY was performed on freshly-extracted brain tissues as described (Chung et al., Nature 497:332-337 (2013)). Briefly, mice were intravenously injected with FAM-labeled peptides 6 hours after brain injury. After 30-minute circulation, mice were intracardially perfused with PBS and hydrogel solution (Acrylamide (4%), bis (0.05%), VA-044 Initiator (0.25%), paraformaldehyde 4% in PBS). Following perfusion, the tissues were incubated in the hydrogel solution at 4° C. for 2-3 days. At UCSD Neuroscience Core and Light Microscopy Facility the tissues were then degased with nitrogen and incubated at 37° C. for 3-4 hours for polymerization. Samples were then passively cleared in 4% SDS solution for around 4 weeks until the tissue became transparent. Finally, the samples were washed in PBS-T for 2 days and incubated in gradient glycerol solutions: 30, 50 and 80%, about 1 day each and stored in 80% glycerol at room temperature until imaged on a confocal microscope (Leica SP5).
Animals were intravenously injected, six hours after injury, with 50 nmoles of peptide dissolved in PBS, and allowed to circulate for 30 minutes. Mice were perfused intracardially with saline and organs were isolated and imaged using the Illumatool Bright Light System LT-9900 (Lightools Research). Brains and organs were placed in 4% PFA at pH 7.4 overnight, washed with PBS and placed in graded sucrose solutions overnight before OCT embedding. 10 μm thick sections were cut and analyzed by immunofluorescence. For a complete histological analysis, sections were stained with the Movat pentachrome kit (American Mastertech Inc.) following the manufacturer's instructions.
Frozen sections were permeabilized using PBS-Triton (0.2%), blocking was carried out using 5% blocking buffer: 5% BSA, 1% goat serum, 1% donkey serum in PBS-T. Primary antibodies were incubated in diluted (1%) blocking buffer overnight at dilutions 1/100 or 1/200 at 4° C., washed with PBS-T and incubated with secondary antibodies diluted 1/200 or 1/500 in 1% diluted buffer for one hour at room temperature, subsequently washed with PBS-T, counterstained with DAPI 1 μg/mL in PBS for five minutes, washed with PBS, mounted using mounting media (Vector Biolabs), and imaged on a confocal microscope (Zeiss LSM-710). […]

Tenascin-R = target: T1, Tenascin-R (Mus musculus, UniProt Q8BYI9); assay: Peptide affinity chromatography and mass spectrometry of PBI brain extract; assay type: binding; conditions: mouse PBI brain lysate 6 hrs after injury, eluted with 2 mM free CAQK; mean of three technical replicates
T1 construct: from tissue; host or cells: mouse brain, 6 h after penetrating brain injury (detergent lysate)
T1 sequence (Q8BYI9 32-1358): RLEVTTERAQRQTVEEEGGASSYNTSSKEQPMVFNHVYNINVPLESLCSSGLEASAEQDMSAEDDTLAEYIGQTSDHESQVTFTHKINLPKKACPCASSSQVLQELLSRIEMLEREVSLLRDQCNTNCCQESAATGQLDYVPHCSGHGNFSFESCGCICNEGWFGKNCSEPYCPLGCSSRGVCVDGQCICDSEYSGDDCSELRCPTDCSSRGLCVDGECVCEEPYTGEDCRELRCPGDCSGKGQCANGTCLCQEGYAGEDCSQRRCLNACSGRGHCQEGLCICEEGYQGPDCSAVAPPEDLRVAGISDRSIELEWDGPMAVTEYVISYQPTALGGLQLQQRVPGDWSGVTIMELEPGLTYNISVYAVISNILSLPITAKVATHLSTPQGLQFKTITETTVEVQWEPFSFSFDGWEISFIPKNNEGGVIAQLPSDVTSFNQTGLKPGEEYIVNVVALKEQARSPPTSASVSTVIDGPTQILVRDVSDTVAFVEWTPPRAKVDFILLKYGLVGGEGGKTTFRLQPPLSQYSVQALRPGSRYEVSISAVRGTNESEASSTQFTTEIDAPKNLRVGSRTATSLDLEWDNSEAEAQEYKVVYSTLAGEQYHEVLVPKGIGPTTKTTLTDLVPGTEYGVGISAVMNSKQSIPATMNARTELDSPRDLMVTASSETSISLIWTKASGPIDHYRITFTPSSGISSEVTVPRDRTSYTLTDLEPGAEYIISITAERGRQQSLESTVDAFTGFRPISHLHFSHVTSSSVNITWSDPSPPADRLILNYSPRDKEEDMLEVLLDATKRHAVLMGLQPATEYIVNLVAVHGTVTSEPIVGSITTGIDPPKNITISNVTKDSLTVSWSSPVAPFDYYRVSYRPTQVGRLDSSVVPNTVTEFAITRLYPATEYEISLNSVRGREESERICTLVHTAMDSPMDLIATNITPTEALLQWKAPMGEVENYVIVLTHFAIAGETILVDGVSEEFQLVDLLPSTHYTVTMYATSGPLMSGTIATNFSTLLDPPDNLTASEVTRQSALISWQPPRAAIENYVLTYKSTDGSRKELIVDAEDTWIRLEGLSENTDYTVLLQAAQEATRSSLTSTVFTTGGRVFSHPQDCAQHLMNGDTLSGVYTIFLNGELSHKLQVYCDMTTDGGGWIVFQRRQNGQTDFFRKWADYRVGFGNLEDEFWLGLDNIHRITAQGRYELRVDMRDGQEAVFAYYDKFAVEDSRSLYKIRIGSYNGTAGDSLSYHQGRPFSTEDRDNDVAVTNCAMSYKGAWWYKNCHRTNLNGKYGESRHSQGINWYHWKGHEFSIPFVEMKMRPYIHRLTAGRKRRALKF
Protocol: For identifying CAQK binding proteins, mouse brains with brain injury were collected 6 hrs after injury. Using liquid nitrogen, the brains were crushed and ground into powder using a mortar and pestle. Next, brain tissue was lysed in PBS containing 200 mM n-octyl-beta-D-glucopyranoside and protease inhibitor cocktail (Roche) as described (Teesalu et al., PNAS 16157-16162 (2009)). The cleared lysate was loaded on to CAQK or control peptide (CGGK) coated Sulfolink-agarose beads (Pierce, Waltham, Mass.) and incubated at 4° C. for 3-4 hrs. The column was washed with wash buffer (75 mM octyl-beta-D-glucopyranoside and protease inhibitor cocktail in PBS) followed by washing with 0.5 mM control peptide in wash buffer to remove nonspecifically bound proteins. The bound proteins were eluted with 2 mM free CAQK peptide. The eluted factions were pooled, their protein concentration determined by using bicinchoninic acid (BCA) protein assay (Thermo Fischer) and the samples were digested using the Filter-aided Sample Preparation (FASP) method (Wisniewski et al., Nat Methods 6:359-362 (2009)). Finally, the digested samples were desalted, dried, and subjected to LC-MS/MS analysis at the Proteomics Core facility of the Sanford Burnham Prebys Medical Discovery Institute. All mass spectra were analyzed with MaxQuant software version 1.5.0.25. […] Empty column denotes protein was not detected.

| Compound | Homing to the injured brain (FAM fluorescence, immunohistochemical staining) [1] | Peptide signal in injured brain 3 hours after injection (retention) [1] | other results |
| --- | --- | --- | --- |
| CN1CC[C@H](c2c(O)cc(O)c3c(=O)cc(-c4ccccc4Cl)oc23)[C@H](O)C1 [flavopiridol] |  |  | Reduction of lesion volume (fluid percussion injury): approximately 70% |
| FAM-CAQK: chemically synthesized fluoresceinamine (FAM)-labeled CAQK peptide ({FAM}-CAQK-NH2) | selective homing to the injured brain |  | FAM signal in clarified whole brain (CLARITY) ([1]; i.v. 6 hours after injury, 30-minute circulation): restricted to the injured quadrant of the brain; Co-localization and cellular localization of i.v. injected peptide signal in injured brain ([1]; immunofluorescence of PBI brain sections): prominently accumulated at mature oligodendrocytes |
| C[C@H](NC(=O)[C@@H](N)CS)C(=O)N[C@@H](CCC(N)=O)C(=O)N[C@@H](CCCCN)C(N)=O [CAQK] (H-CAQK-NH2) |  | visible |  |
| FAM-CGGK: FAM-labeled control peptide (CGGK) of the same length and overall charge as CAQK ({FAM}-CGGK-NH2) | minimal fluorescent signal | completely washed out |  |
| CGGK ({FAM}-CGGK-NH2) [control peptide of the same length and overall charge as CAQK, immobilized on Sulfolink-agarose beads] |  |  | Log2 LFQ intensity, Tenascin-R (TNR) in column eluate (Tenascin-R): 24.14 |

From patent publication US10653797B2, “Compounds and compositions for targeting brain injuries and methods of use thereof” (SANFORD BURNHAM PREBYS MEDICAL DISCOVERY INSTITUTE, priority 2015, dated 2020)
